Measured values published in PubChem BioAssay (NCI).
“And” between values parts separate entries of the source, which are not always exact repeats. Equal values may be shown once.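 Method: 48-hour compound exposure of cells in 96-well plates, five concentrations, linear interpolation of endpoints. The concentration for 50% growth inhibition is given as GI50. TGI marks complete inhibition of growth.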

System: HCT-15 colon
Assay: DTP human tumour cell line panel, 48 h

Structure (SMILES)	TGI	GI50 [µM]
O=C1C=C/C(=N\N=C(c2ccccc2)c2ccccc2)O1	> 10 µM	–
CC(=O)NC1C(OCc2ccccc2)OC(CO)C(O)C1OCC(=O)N[C@@H](C)C(=O)N[C@H](CCC(=O)NCCCNc1c2ccccc2nc2cccc([N+](=O)[O-])c12)C(N)=O (stereo partly drawn)	0.376 µM	–
O=C(O)c1ccccc1CC(Cc1ccc2c(c1)CCC2)C(=O)O (stereo not drawn)	> 100 µM	–
Cn1c(SCc2ccc(F)cc2)nnc1C12CC3CC(CC(C3)C1)C2	> 100 µM	–
CCCCCC#CCOC(=O)C(=[N+]=[N-])P(=O)(c1ccccc1)c1ccccc1	> 10 µM	–
COc1ccc(C(=O)/C=C/c2ccc(OCCCOc3ccc(/C=C/C(=O)c4ccc(OC)cc4)cc3)cc2)cc1	> 100 µM	–
CCOc1cc(/C=C2/C(C)=NN(c3cccc(Cl)c3)/C2=N/c2nc3ccccc3s2)ccc1O	69.8 µM	–
O=C(O)COc1ccccc1C(=O)Nc1ccccc1	> 100 µM	–
COc1ccc(C2c3cn[nH]c3CC3CCCCC32)cc1 (stereo not drawn)	31.7 µM	–
COc1ccc(C2OC(c3ccncc3)=NN2C)cc1F (stereo not drawn)	> 100 µM	–
COc1cc2c(cc1OC)C(C(c1ccccc1)c1ccccc1)N(C)CC2 (stereo not drawn)	> 100 µM	–
CCOC(=O)N1CCC(N[C@@H]2c3cc4c(cc3C(c3cc(OC)c(O)c(OC)c3)C3C(=O)OC[C@@H]32)OCO4)CC1 (stereo partly drawn)	2.97 µM and 4.43 µM	–
C[N+](C)([O-])CCOc1cc2c(c3ccccc13)-c1ccccc1C2=O	> 100 µM	–
CCOC(=O)C1S/C(=N\C(=N)N[N+](=O)[O-])N=C1C (stereo not drawn)	> 100 µM	–
NS(=O)(=O)c1ccc(NC(=S)/N=C/C2=C(O)c3ccccc3C2=O)cc1	> 100 µM	–
O=C1NC2c3c(I)sc(I)c3C(O)C2O1 (stereo not drawn)	> 100 µM	–

Structure (SMILES)	TGI	GI50 [µM]
Cc1nc(C)c(C(=O)NNC(=O)C[N+](C)(C)C)cc1C(=O)NNC(=O)C[N+](C)(C)C	> 100 µM	–
S=C1NC2=C(CSC/C2=C\c2cccc(Br)c2)C(c2cccc(Br)c2)N1 (stereo not drawn)	> 100 µM	–
Clc1ccc(-c2nnc3sc4nc5ccccc5c-4nn23)c(Cl)c1	> 100 µM	–
CCCCCCCCCCCCCCCCNc1cccc2ccccc12	> 100 µM	–
C=C(C(=O)OCC)C(=O)OCC	> 100 µM	–
O=C1OCC/C1=N/O	> 100 µM	–
CC(O)CNC(=O)C(C)Oc1ccc(OCC2CCCCC2)cc1 (stereo not drawn)	> 100 µM	–
CSC1=N/C(=C\c2ccc(C)cc2)C(=O)N1CN1CCCCC1	> 100 µM	–
Cc1ccc(S(=O)(=O)n2c3c(c4ccccc42)CCN2C[C@H]([C@H](C)Br)CC[C@@H]32)cc1	> 100 µM	–
C[n+]1c(/C=C/c2c(O)ccc3ccccc23)ccc2ccccc21	13.1 µM	5.84
Cc1c(/C=N\NC(=S)NCCNC(=S)N/N=C\c2c(C)n(C)n(-c3ccccc3)c2=O)c(=O)n(-c2ccccc2)n1C	> 100 µM	–
O=P(O)(O)C(N=C(Nc1ccccc1)Nc1ccccc1)P(=O)(O)O	> 100 µM	–
CCCNc1ncnc2c1ncn2C	> 100 µM	–
CCOC(=O)c1c(-c2ccc(O)c(OC)c2)c(C#N)c(=S)n(C2OC(CO)C(O)C(O)C2O)c1-c1ccccc1 (stereo not drawn)	> 100 µM	–
C=C1CC(C#N)(C#N)[C@H]2C3CCCC3C[C@@H]12 (stereo partly drawn) (tested in a mixture with another compound)	32.8 µM	–
COC(C)(C)C1(O)CC[C@@H](C)CC1=O (stereo partly drawn)	> 100 µM	–

System: IGROV1 ovarian
Assay: DTP human tumour cell line panel, 48 h

Structure (SMILES)	TGI	GI50 [µM]
C=C1C(=O)CC2C1CC(=O)/C(C)=C/CCC(C)(O)C2O (stereo not drawn)	20.4 µM	–
O=C1C=C/C(=N\N=C(c2ccccc2)c2ccccc2)O1	> 10 µM	–
Cc1ccc(/C=N\NC2c3cc(Cl)ccc3Nc3nc(=O)[nH]c(C)c32)cc1 (stereo not drawn)	> 100 µM	–
CC(=O)NC1C(OCc2ccccc2)OC(CO)C(O)C1OCC(=O)N[C@@H](C)C(=O)N[C@H](CCC(=O)NCCCNc1c2ccccc2nc2cccc([N+](=O)[O-])c12)C(N)=O (stereo partly drawn)	0.606 µM	–
O=C(O)c1ccccc1CC(Cc1ccc2c(c1)CCC2)C(=O)O (stereo not drawn)	> 100 µM	–
Cn1c(SCc2ccc(F)cc2)nnc1C12CC3CC(CC(C3)C1)C2	78.2 µM	–
CCCCCC#CCOC(=O)C(=[N+]=[N-])P(=O)(c1ccccc1)c1ccccc1	> 10 µM	–
COc1ccc(C(=O)/C=C/c2ccc(OCCCOc3ccc(/C=C/C(=O)c4ccc(OC)cc4)cc3)cc2)cc1	> 100 µM	–
CCOc1cc(/C=C2/C(C)=NN(c3cccc(Cl)c3)/C2=N/c2nc3ccccc3s2)ccc1O	> 100 µM	–
O=C(O)COc1ccccc1C(=O)Nc1ccccc1	> 100 µM	–
COc1ccc(C2c3cn[nH]c3CC3CCCCC32)cc1 (stereo not drawn)	26.6 µM	–
O=C1CC2(CCC(O)(c3ccc4ccccc4c3)C(C(=O)c3ccc4ccccc4c3)C2)C(=O)c2ccccc2N1 (stereo not drawn)	> 100 µM	–
COc1ccc(C2OC(c3ccncc3)=NN2C)cc1F (stereo not drawn)	> 100 µM	–
COc1cc2c(cc1OC)C(C(c1ccccc1)c1ccccc1)N(C)CC2 (stereo not drawn)	> 100 µM	–
CCOC(=O)N1CCC(N[C@@H]2c3cc4c(cc3C(c3cc(OC)c(O)c(OC)c3)C3C(=O)OC[C@@H]32)OCO4)CC1 (stereo partly drawn)	13.6 µM and 9.21 µM	–
C[N+](C)([O-])CCOc1cc2c(c3ccccc13)-c1ccccc1C2=O	99.8 µM	–
CCOC(=O)C1S/C(=N\C(=N)N[N+](=O)[O-])N=C1C (stereo not drawn)	> 100 µM	–

Structure (SMILES)	TGI	GI50 [µM]
NS(=O)(=O)c1ccc(NC(=S)/N=C/C2=C(O)c3ccccc3C2=O)cc1	> 100 µM	–
O=C1NC2c3c(I)sc(I)c3C(O)C2O1 (stereo not drawn)	> 100 µM	–
Cc1nc(C)c(C(=O)NNC(=O)C[N+](C)(C)C)cc1C(=O)NNC(=O)C[N+](C)(C)C	> 100 µM	–
S=C1NC2=C(CSC/C2=C\c2cccc(Br)c2)C(c2cccc(Br)c2)N1 (stereo not drawn)	> 100 µM	–
CCCCCCCCCCCCCCCCNc1cccc2ccccc12	> 100 µM	–
C=C(C(=O)OCC)C(=O)OCC	> 100 µM	–
O=C1OCC/C1=N/O	> 100 µM	–
CC(O)CNC(=O)C(C)Oc1ccc(OCC2CCCCC2)cc1 (stereo not drawn)	> 100 µM	–
CSC1=N/C(=C\c2ccc(C)cc2)C(=O)N1CN1CCCCC1	> 100 µM	–
Cc1ccc(S(=O)(=O)n2c3c(c4ccccc42)CCN2C[C@H]([C@H](C)Br)CC[C@@H]32)cc1	> 100 µM	–
C[n+]1c(/C=C/c2c(O)ccc3ccccc23)ccc2ccccc21	12.7 µM	4.6
O=P(O)(O)C(N=C(Nc1ccccc1)Nc1ccccc1)P(=O)(O)O	> 100 µM	–
CCCNc1ncnc2c1ncn2C	> 100 µM	–
CCOC(=O)c1c(-c2ccc(O)c(OC)c2)c(C#N)c(=S)n(C2OC(CO)C(O)C(O)C2O)c1-c1ccccc1 (stereo not drawn)	> 100 µM	–
C=C1CC(C#N)(C#N)[C@H]2C3CCCC3C[C@@H]12 (stereo partly drawn) (tested in a mixture with another compound)	> 100 µM	–
COC(C)(C)C1(O)CC[C@@H](C)CC1=O (stereo partly drawn)	> 100 µM	–

System: K-562 leukemia
Assay: DTP human tumour cell line panel, 48 h

Structure (SMILES)	TGI [µM]
C=C1C(=O)CC2C1CC(=O)/C(C)=C/CCC(C)(O)C2O (stereo not drawn)	15.7
O=C1C=C/C(=N\N=C(c2ccccc2)c2ccccc2)O1	> 10
Cc1ccc(/C=N\NC2c3cc(Cl)ccc3Nc3nc(=O)[nH]c(C)c32)cc1 (stereo not drawn)	> 100
CC(=O)NC1C(OCc2ccccc2)OC(CO)C(O)C1OCC(=O)N[C@@H](C)C(=O)N[C@H](CCC(=O)NCCCNc1c2ccccc2nc2cccc([N+](=O)[O-])c12)C(N)=O (stereo partly drawn)	> 39.8
O=C(O)c1ccccc1CC(Cc1ccc2c(c1)CCC2)C(=O)O (stereo not drawn)	> 100
Cn1c(SCc2ccc(F)cc2)nnc1C12CC3CC(CC(C3)C1)C2	> 100
